This is an account of results in ChEMBL document CHEMBL4017480, “Discovery and optimization of selective FGFR4 inhibitors via scaffold hopping” (Bioorg Med Chem Lett, 2017).

Structures are written as SMILES.

Series [1] addresses T1, Tyrosine-protein kinase Tec (Homo sapiens) (UniProt P42680).
T1 sequence (whole entry): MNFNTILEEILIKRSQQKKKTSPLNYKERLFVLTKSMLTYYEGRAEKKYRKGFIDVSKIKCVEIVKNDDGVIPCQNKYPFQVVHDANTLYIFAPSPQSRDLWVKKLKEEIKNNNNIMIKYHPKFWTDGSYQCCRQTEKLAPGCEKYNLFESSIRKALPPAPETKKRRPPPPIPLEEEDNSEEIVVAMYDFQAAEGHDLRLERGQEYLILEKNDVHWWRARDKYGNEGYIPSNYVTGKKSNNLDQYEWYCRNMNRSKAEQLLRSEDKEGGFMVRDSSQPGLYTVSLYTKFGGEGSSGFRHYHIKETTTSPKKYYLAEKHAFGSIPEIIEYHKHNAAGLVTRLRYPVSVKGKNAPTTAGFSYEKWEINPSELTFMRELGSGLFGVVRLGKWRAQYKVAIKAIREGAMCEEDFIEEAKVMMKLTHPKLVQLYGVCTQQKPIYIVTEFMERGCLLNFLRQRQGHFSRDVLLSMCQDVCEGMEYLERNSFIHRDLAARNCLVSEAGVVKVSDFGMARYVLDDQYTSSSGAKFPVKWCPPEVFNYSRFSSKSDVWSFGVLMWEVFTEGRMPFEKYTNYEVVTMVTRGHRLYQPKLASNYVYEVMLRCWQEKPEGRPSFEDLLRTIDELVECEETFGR
As to the kind of experiment: Inhibition of human TEC at 10 uM using poly[Glu:Tyr] (4:1) as substrate measured after 120 mins in presence of [gamma33P]ATP by P81 ion exchange chromatographic method relative to control.

Series [2] addresses T2, Tyrosine-protein kinase JAK3 (Homo sapiens) (UniProt P52333).
T2 sequence (whole entry): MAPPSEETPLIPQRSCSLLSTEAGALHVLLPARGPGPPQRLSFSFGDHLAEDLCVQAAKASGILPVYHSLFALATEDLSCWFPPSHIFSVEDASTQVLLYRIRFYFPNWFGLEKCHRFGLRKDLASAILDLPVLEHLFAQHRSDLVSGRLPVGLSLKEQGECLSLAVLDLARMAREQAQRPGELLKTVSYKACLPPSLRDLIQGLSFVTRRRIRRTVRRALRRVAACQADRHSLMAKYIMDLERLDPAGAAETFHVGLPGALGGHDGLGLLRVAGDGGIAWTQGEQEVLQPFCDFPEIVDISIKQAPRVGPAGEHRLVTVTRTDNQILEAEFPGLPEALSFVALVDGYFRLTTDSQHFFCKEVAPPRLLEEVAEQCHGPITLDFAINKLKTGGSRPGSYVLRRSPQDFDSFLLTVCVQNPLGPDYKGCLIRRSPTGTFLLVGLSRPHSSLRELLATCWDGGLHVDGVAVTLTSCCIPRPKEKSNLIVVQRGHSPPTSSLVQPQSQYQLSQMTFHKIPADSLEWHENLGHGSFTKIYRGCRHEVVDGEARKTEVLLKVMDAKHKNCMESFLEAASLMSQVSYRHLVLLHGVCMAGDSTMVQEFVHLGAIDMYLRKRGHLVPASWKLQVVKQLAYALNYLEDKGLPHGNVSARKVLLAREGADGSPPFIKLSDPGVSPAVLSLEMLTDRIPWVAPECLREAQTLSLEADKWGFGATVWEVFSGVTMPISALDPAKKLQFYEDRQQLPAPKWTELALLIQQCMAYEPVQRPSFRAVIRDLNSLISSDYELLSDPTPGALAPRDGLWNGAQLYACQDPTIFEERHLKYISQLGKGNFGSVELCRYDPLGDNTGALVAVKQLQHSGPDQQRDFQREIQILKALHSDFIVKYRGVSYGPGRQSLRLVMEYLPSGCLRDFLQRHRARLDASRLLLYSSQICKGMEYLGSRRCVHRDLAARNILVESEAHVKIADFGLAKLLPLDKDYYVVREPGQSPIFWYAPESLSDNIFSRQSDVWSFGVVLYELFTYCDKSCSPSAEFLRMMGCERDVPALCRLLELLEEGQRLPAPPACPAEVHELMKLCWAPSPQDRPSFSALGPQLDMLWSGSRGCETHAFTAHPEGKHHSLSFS
As to the kind of experiment: Inhibition of human JAK3 at 10 uM using GEEEEYFELVKKKK as substrate measured after 120 mins in presence of [gamma33P]ATP by P81 ion exchange chromatographic method relative to control.

In series [3] the target is Fibroblast growth factor receptor 4 (Homo sapiens, UniProt P22455). Kind of series: Inhibition of recombinant human N-terminal His-tagged FGFR4 cytoplasmic domain […] expressed in baculovirus expression system using tyr 04 peptide as substrate measured within 90 mins by Z-LYTE assay.
For series [4], the target named is Fibroblast growth factor receptor 1 (Homo sapiens, UniProt P11362). As to the kind of experiment: Inhibition of recombinant human His-tagged FGFR1 cytoplasmic domain (308 to 731 residues) expressed in baculovirus expression system using tyr 04 as substrate measured within 60 mins by Z-LYTE assay.
Series [5] in a line: Efflux ratio of apparent permeability from basolateral to apical over apical to basolateral side in MDCK2-MDR1 cells at 2 uM after 2.5 hrs LC-MS/MS analysis. Type of series: ADME, cell-based, Canis lupus familiaris. To be noted: dog, MDCK-MDR1.
A further series has as its system Plasma. Kind of series: Drug degradation in human plasma measured after 2 hrs by metabolite identification method. It is filed as ADME, cell-free.
A short description of series [6]: Unbound plasma concentration in rat at 2 uM measured after 4 hrs by LC-MS/MS analysis. It is filed as ADME, cell-free.
The nature of series [7]: Unbound plasma concentration in human at 2 uM measured after 4 hrs by LC-MS/MS analysis. It is filed as ADME, cell-free.
Series [8] can be described thus: Volume of distribution in Balb/c mouse at 0.2 mg/kg, iv administered as single bolus dose by LC-MS/MS analysis. To be noted: in vivo. Type of series: ADME, organism-based.

Fibroblast growth factor receptor 1, sequence (P11362 whole entry, the tested form may be a part): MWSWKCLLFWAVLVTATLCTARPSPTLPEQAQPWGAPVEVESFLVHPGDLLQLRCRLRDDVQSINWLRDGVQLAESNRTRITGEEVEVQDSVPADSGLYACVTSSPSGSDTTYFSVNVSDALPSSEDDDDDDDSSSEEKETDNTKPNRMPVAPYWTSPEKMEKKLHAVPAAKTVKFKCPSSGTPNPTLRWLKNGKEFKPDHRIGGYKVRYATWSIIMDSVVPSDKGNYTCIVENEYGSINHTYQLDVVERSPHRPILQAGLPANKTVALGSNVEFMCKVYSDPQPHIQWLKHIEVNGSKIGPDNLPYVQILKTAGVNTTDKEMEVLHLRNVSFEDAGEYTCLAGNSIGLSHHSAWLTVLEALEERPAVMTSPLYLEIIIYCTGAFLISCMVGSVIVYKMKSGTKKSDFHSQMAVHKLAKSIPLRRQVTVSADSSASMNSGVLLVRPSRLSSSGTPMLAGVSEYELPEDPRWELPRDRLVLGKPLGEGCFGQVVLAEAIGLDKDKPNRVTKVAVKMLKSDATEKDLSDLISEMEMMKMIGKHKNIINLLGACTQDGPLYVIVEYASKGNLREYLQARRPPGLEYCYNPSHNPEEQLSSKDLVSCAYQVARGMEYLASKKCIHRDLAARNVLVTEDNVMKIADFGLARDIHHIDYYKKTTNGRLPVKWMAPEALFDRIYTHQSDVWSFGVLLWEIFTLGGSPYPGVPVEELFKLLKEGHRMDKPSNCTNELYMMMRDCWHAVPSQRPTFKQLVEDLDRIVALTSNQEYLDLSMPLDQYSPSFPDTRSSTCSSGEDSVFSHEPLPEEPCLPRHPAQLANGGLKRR
Fibroblast growth factor receptor 4, sequence (P22455 whole entry, the tested form may be a part): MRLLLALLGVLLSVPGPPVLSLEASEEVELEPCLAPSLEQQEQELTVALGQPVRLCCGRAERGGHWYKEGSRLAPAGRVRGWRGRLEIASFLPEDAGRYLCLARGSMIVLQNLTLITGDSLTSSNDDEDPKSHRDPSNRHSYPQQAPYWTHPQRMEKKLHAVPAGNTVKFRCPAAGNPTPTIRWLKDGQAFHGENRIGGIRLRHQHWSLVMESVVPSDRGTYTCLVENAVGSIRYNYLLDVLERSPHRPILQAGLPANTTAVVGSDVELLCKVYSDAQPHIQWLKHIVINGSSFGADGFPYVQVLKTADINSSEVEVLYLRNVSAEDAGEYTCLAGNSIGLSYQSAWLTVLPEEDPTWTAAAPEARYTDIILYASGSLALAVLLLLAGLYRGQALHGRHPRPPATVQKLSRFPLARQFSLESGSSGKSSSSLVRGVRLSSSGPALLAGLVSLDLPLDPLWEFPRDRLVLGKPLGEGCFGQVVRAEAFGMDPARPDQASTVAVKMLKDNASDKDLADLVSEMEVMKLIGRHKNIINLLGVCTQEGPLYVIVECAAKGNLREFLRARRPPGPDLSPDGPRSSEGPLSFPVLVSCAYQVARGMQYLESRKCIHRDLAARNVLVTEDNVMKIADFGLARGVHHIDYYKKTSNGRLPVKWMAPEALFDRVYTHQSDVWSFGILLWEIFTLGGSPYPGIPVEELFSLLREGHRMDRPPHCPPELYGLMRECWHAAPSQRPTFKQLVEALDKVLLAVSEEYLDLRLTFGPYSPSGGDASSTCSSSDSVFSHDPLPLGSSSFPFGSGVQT

Consider `C=CC(=O)Nc1cccc(C)c1Nc1ncc2cc(-c3c(Cl)c(OC)cc(OC)c3Cl)ccc2n1`, for which the inhibition in [1] was -5%; in series [2] it was 12%.

As to `C=CC(=O)Nc1cccc(C)c1Nc1ncc(OCc2c(F)c(OC)cc(OC)c2F)cn1`, the inhibition in series [2] was determined as 7%. Besides, the 50% inhibitory concentration (IC50) in series [3] turned out to be 0.003 µM; in series [4] it was 8.6 µM. For the same compound, in series [5], the efflux ratio at 2.5 h, 2 µM was determined as 1. Further, the Drug degradation with Plasma is listed as 30%.

On to `C=CC(=O)N[C@H]1COC[C@H]1Nc1ncc(OCc2c(F)c(OC)cc(OC)c2F)cn1`, for which the inhibition in series [1] was -1%; in [2] it was 9%. Besides, the results for the fraction unbound at 4 h, 2 µM in series [6] and in series [7] were 0.309 and 0.354, respectively. Moreover, the figures for the 50% inhibitory concentration (IC50) in series [3] and in [4] were 0.013 µM and 3.5 µM, respectively. Moreover, the efflux ratio at 2.5 h, 2 µM in [5] stood at 3.8. The compound further came in with a Vd in series [8] of 0.58 L/kg.
